Reference: patent publication US20160016958A1, “Method of Labeling Flumazenil with F-18 and Separating and Purifying F-18-Flumazenil” (Institute of Nuclear Energy Research, Atomic Energy …, priority 2014, published 2016)

Assay: lipophilicity test, octanol/PBS partition with gamma counter
Type: physicochemical

## CCOC(=O)c1ncn2c1CN(C)C(=O)c1cc([18F])ccc1-2 [F-18-flumazenil]
  log P value: 1.49±0.12
